Data taken from patent US12558357B2, “Tetrahydroquinazoline derivatives as selective cytotoxic agents” (Merck Sharp & Dohme LLC, priority 2020, dated 2026).

tested on: PBMCs infected with VSV-G pseudotyped HIV virus (VSV-G/pNLG1-P2A-ΔEnv); experiment: cells; format: cell-based, human; settings: Homo sapiens, PBMC, read-out: EC50 (HIV-TACK cell kill activity)

Question: Which EC50 does the source give for Cc1cc(=O)n(Cc2cc3c(cc2Cl)[C@@](C#CC2CC2)(C(C)(F)F)NC(=O)N3)cn1 [Example 18, (S)-6-chloro-4-(cyclopropylethynyl)-4-(1,1-difluoroethyl)-7-((4-methyl-6-oxopyrimidin-1(6H)-yl)methyl)-3,4-dihydroquinazolin-2(1H)-one] here?
Answer: 0.015 µM

Question: For COCc1cc(=O)n(Cc2cc3c(cc2Cl)[C@@](C#CC2CC2)(C(C)(F)F)NC(=O)N3)cn1 [Example 19, (S)-6-chloro-4-(cyclopropylethynyl)-4-(1,1-difluoroethyl)-7-((4-(methoxymethyl)-6-oxopyrimidin-1(6H)-yl)methyl)-3,4-dihydroquinazolin-2(1H)-one], which EC50 is on record?
Answer: 0.014 µM

Question: With Nc1nccn(Cc2c(F)cc3c(c2F)NC(=O)N[C@]3(C#CC2CC2)C(F)(F)F)c1=O [Example 20, (S)-7-((3-amino-2-oxopyrazin-1(2H)-yl)methyl)-4-(cyclopropylethynyl)-6,8-difluoro-4-(trifluoromethyl)-3,4-dihydroquinazolin-2(1H)-one] as the compound, how does the EC50 read?
Answer: 0.047 µM

Question: For O=C1Nc2cc(Cn3cnccc3=O)ccc2[C@@](C#CC2CC2)(C(F)(F)F)N1 [Example 21, (S)-4-(cyclopropylethynyl)-7-((6-oxopyrimidin-1(6H)-yl)methyl)-4-(trifluoromethyl)-3,4-dihydroquinazolin-2(1H)-one], which EC50 is on record?
Answer: 0.181 µM

Question: For O=C1Nc2cc(Cn3cnc(C4CC4)cc3=O)ccc2[C@@](C#CC2CC2)(C(F)(F)F)N1 [Example 22, (S)-7-((4-cyclopropyl-6-oxopyrimidin-1(6H)-yl)methyl)-4-(cyclopropylethynyl)-4-(trifluoromethyl)-3,4-dihydroquinazolin-2(1H)-one], which EC50 is on record?
Answer: 0.288 µM

Question: For O=C1Nc2cc(Cn3ncccc3=O)ccc2[C@@](C#CC2CC2)(C(F)(F)F)N1 [Example 23, (S)-4-(cyclopropylethynyl)-7-((6-oxopyridazin-1(6H)-yl)methyl)-4-(trifluoromethyl)-3,4-dihydroquinazolin-2(1H)-one], which EC50 is on record?
Answer: 0.25 µM

Question: How did the EC50 turn out when Nc1ccnn(Cc2ccc3c(c2)NC(=O)N[C@]3(C#CC2CC2)C(F)(F)F)c1=O [Example 24, (S)-7-((5-amino-6-oxopyridazin-1(6H)-yl)methyl)-4-(cyclopropylethynyl)-4-(trifluoromethyl)-3,4-dihydroquinazolin-2(1H)-one] was run?
Answer: 0.21 µM

Question: With O=C1Nc2cc(Cn3cnc(C(F)(F)F)cc3=O)ccc2[C@@](C#CC2CC2)(C(F)(F)F)N1 [Example 25, (S)-4-(cyclopropylethynyl)-7-((6-oxo-4-(trifluoromethyl)pyrimidin-1(6H)-yl)methyl)-4-(trifluoromethyl)-3,4-dihydroquinazolin-2(1H)-one] as the compound, how does the EC50 read?
Answer: 0.194 µM

Question: Nc1ccnn(Cc2cc3c(cc2F)[C@@](C#CC2CC2)(C(F)(F)F)NC(=O)N3)c1=O [Example 26, (S)-7-((5-amino-6-oxopyridazin-1(6H)-yl)methyl)-4-(cyclopropylethynyl)-6-fluoro-4-(trifluoromethyl)-3,4-dihydroquinazolin-2(1H)-one] was tested. Which EC50 did it give?
Answer: 0.226 µM

Question: With N#Cc1cc(=O)n(Cc2ccc3c(c2)NC(=O)N[C@]3(C#CC2CC2)C(F)(F)F)cn1 [Example 27, (S)-1-((4-(cyclopropylethynyl)-2-oxo-4-(trifluoromethyl)-1,2,3,4-tetrahydroquinazolin-7-yl)methyl)-6-oxo-1,6-dihydropyrimidine-4-carbonitrile] as the compound, how does the EC50 read?
Answer: 0.19 µM

Question: Nc1cc(=O)n(Cc2ccc3c(c2)NC(=O)N[C@]3(C#CC2CC2)C(F)(F)F)cn1 [Example 28, (S)-7-((4-amino-6-oxopyrimidin-1(6H)-yl)methyl)-4-(cyclopropylethynyl)-4-(trifluoromethyl)-3,4-dihydroquinazolin-2(1H)-one] was tested. Which EC50 did it give?
Answer: 0.171 µM

Question: For O=C1Nc2cc(Cn3nc(Cl)ccc3=O)ccc2[C@@](C#CC2CC2)(C(F)(F)F)N1 [Example 29, (S)-7-((3-chloro-6-oxopyridazin-1(6H)-yl)methyl)-4-(cyclopropylethynyl)-4-(trifluoromethyl)-3,4-dihydroquinazolin-2(1H)-one], which EC50 is on record?
Answer: 0.161 µM

Question: Which EC50 does the source give for Cc1cnc(N)c(=O)n1Cc1ccc2c(c1)NC(=O)N[C@]2(C#CC1CC1)C(F)(F)F [Example 30, (S)-7-((3-amino-6-methyl-2-oxopyrazin-1(2H)-yl)methyl)-4-(cyclopropylethynyl)-4-(trifluoromethyl)-3,4-dihydroquinazolin-2(1H)-one] here?
Answer: 0.152 µM

Question: For COCc1cc(=O)n(Cc2ccc3c(c2)NC(=O)N[C@]3(C#CC2CC2)C(F)(F)F)cn1 [Example 31, (S)-4-(cyclopropylethynyl)-7-((4-(methoxymethyl)-6-oxopyrimidin-1(6H)-yl)methyl)-4-(trifluoromethyl)-3,4-dihydroquinazolin-2(1H)-one], which EC50 is on record?
Answer: 0.146 µM

Question: How did the EC50 turn out when Nc1c(C(F)(F)F)ncn(Cc2ccc3c(c2)NC(=O)N[C@]3(C#CC2CC2)C(F)(F)F)c1=O [Example 33, (S)-7-((5-amino-6-oxo-4-(trifluoromethyl)pyrimidin-1(6H)-yl)methyl)-4-(cyclopropylethynyl)-4-(trifluoromethyl)-3,4-dihydroquinazolin-2(1H)-one] was run?
Answer: 0.126 µM

Question: With Cc1cc(=O)n(Cc2ccc3c(c2)NC(=O)N[C@]3(C#CC2CC2)C(F)(F)F)cn1 [Example 34, (S)-4-(cyclopropylethynyl)-7-((4-methyl-6-oxopyrimidin-1(6H)-yl)methyl)-4-(trifluoromethyl)-3,4-dihydroquinazolin-2(1H)-one] as the compound, how does the EC50 read?
Answer: 0.117 µM

Question: For O=C1Nc2cc(Cn3cnc(Cl)cc3=O)ccc2[C@@](C#CC2CC2)(C(F)(F)F)N1 [Example 35, (S)-7-((4-chloro-6-oxopyrimidin-1(6H)-yl)methyl)-4-(cyclopropylethynyl)-4-(trifluoromethyl)-3,4-dihydroquinazolin-2(1H)-one], which EC50 is on record?
Answer: 0.101 µM

Question: O=C1Nc2cc(Cn3cnc(C(F)F)cc3=O)ccc2[C@@](C#CC2CC2)(C(F)(F)F)N1 [Example 36, (S)-4-(cyclopropylethynyl)-7-((4-(difluoromethyl)-6-oxopyrimidin-1(6H)-yl)methyl)-4-(trifluoromethyl)-3,4-dihydroquinazolin-2(1H)-one] was tested. Which EC50 did it give?
Answer: 0.101 µM

Question: For Nc1cncn(Cc2ccc3c(c2)NC(=O)N[C@]3(C#CC2CC2)C(F)(F)F)c1=O [Example 37, (S)-1-((4-(cyclopropylethynyl)-2-oxo-4-(trifluoromethyl)-1,2,3,4-tetrahydroquinazolin-7-yl)methyl)-6-oxo-1,6-dihydropyrimidin-5-aminium 2,2,2-trifluoroacetate], which EC50 is on record?
Answer: 0.089 µM

Question: For O=C1Nc2cc(Cn3cnc(C(F)(F)F)cc3=O)c(F)cc2[C@@](C#CC2CC2)(C(F)(F)F)N1 [Example 38, (S)-4-(cyclopropylethynyl)-6-fluoro-7-((6-oxo-4-(trifluoromethyl)pyrimidin-1(6H)-yl)methyl)-4-(trifluoromethyl)-3,4-dihydroquinazolin-2(1H)-one], which EC50 is on record?
Answer: 0.087 µM

Question: How did the EC50 turn out when Nc1cccn(Cc2cc3c(cc2F)[C@@](C#CC2CC2)(C(F)(F)F)NC(=O)N3)c1=O [Example 39, (S)-7-((3-amino-2-oxopyridin-1(2H)-yl)methyl)-4-(cyclopropylethynyl)-6-fluoro-4-(trifluoromethyl)-3,4-dihydroquinazolin-2(1H)-one] was run?
Answer: 0.072 µM

Question: With Nc1c(Cl)ncn(Cc2ccc3c(c2)NC(=O)N[C@]3(C#CC2CC2)C(F)(F)F)c1=O [Example 40, (S)-7-((5-amino-4-chloro-6-oxopyrimidin-1(6H)-yl)methyl)-4-(cyclopropylethynyl)-4-(trifluoromethyl)-3,4-dihydroquinazolin-2(1H)-one] as the compound, how does the EC50 read?
Answer: 0.065 µM

Question: How did the EC50 turn out when Nc1cc(=O)n(Cc2cc3c(cc2F)[C@@](C#CC2CC2)(C(F)(F)F)NC(=O)N3)cn1 [Example 41, (S)-7-((4-amino-6-oxopyrimidin-1(6H)-yl)methyl)-4-(cyclopropylethynyl)-6-fluoro-4-(trifluoromethyl)-3,4-dihydroquinazolin-2(1H)-one] was run?
Answer: 0.06 µM

Question: Which EC50 does the source give for O=C1Nc2cc(Cn3cnc(C(F)(F)F)cc3=O)c(Cl)cc2[C@@](C#CC2CC2)(C(F)(F)F)N1 [Example 42, (S)-6-chloro-4-(cyclopropylethynyl)-7-((6-oxo-4-(trifluoromethyl)pyrimidin-1(6H)-yl)methyl)-4-(trifluoromethyl)-3,4-dihydroquinazolin-2(1H)-one] here?
Answer: 0.052 µM

Question: With Cc1cc(=O)n(Cc2cc3c(cc2F)[C@@](C#CC2CC2)(C(F)(F)F)NC(=O)N3)cn1 [Example 43, (S)-4-(cyclopropylethynyl)-6-fluoro-7-((4-methyl-6-oxopyrimidin-1(6H)-yl)methyl)-4-(trifluoromethyl)-3,4-dihydroquinazolin-2(1H)-one] as the compound, how does the EC50 read?
Answer: 0.05 µM

Question: With O=C1Nc2cc(Cn3cnc(Cl)cc3=O)c(F)cc2[C@@](C#CC2CC2)(C(F)(F)F)N1 [Example 44, (S)-7-((4-chloro-6-oxopyrimidin-1(6H)-yl)methyl)-4-(cyclopropylethynyl)-6-fluoro-4-(trifluoromethyl)-3,4-dihydroquinazolin-2(1H)-one] as the compound, how does the EC50 read?
Answer: 0.047 µM

Question: With Nc1nccn(Cc2cc3c(cc2Br)[C@@](C#CC2CC2)(C(F)(F)F)NC(=O)N3)c1=O [Example 45, (S)-7-((3-amino-2-oxopyrazin-1(2H)-yl)methyl)-6-bromo-4-(cyclopropylethynyl)-4-(trifluoromethyl)-3,4-dihydroquinazolin-2(1H)-one] as the compound, how does the EC50 read?
Answer: 0.05 µM

Question: Which EC50 does the source give for CN1C(=O)Nc2cc(Cn3ccnc(N)c3=O)ccc2[C@@]1(C#CC1CC1)C(F)(F)F [Example 46, (S)-7-((3-amino-2-oxopyrazin-1(2H)-yl)methyl)-4-(cyclopropylethynyl)-3-methyl-4-(trifluoromethyl)-3,4-dihydroquinazolin-2(1H)-one] here?
Answer: 0.101 µM

Question: With Cc1cn(Cc2ccc3c(c2)NC(=O)N[C@]3(C#CC2CC2)C(F)(F)F)c(=O)[nH]c1=O [Example 47, (S)-1-((4-(cyclopropylethynyl)-2-oxo-4-(trifluoromethyl)-1,2,3,4-tetrahydroquinazolin-7-yl)methyl)-5-methylpyrimidine-2,4(1H,3H)-dione] as the compound, how does the EC50 read?
Answer: 0.135 µM

same assay, conditions: read-out: EC50 (HIV-TACK cell kill activity); 2,2,2-trifluoroacetate

Question: With Nc1cc(=O)n(Cc2ccc3c(c2)NC(=O)N[C@]3(C#CC2CC2)C(F)(F)F)cn1 [Example 32, (S)-1-((4-(cyclopropylethynyl)-2-oxo-4-(trifluoromethyl)-1,2,3,4-tetrahydroquinazolin-7-yl)methyl)-6-oxo-1,6-dihydropyrimidin-4-aminium 2,2,2-trifluoroacetate] as the compound, how does the EC50 read?
Answer: 0.141 µM
